In the case of `C#Cc1cccc(NC(=O)NC(=O)CCl)c1`, the melting point – broadly, the temperature of the solid-liquid transition – fell in the range of 185 to 187 °C.

In turn, `CC(C)(C)C(N)c1nc(-c2nnc[nH]2)no1` (stereo not drawn) gave a melting point of 169 to 171 °C.

In turn, `CC1(C)CC(=O)c2sc(N)nc2C1` displayed a melting point of 212 to 214 °C.

Molecule `CC(C)c1cccc(C(=O)O)n1` yielded a melting point of 63 to 65 °C.

Take `N#Cc1cc(S(N)(=O)=O)ccc1F`: the melting point was in the range of 142 to 144 °C.

`O=C(O)c1c(F)cccc1Br`: the melting point fell in the range of 153 to 155 °C.

Regarding `OCCn1c(CSc2nnc(-c3ccc4c(c3)OCO4)o2)nc2ccc(Cl)cc21`, the melting point is 202 to 204 °C.

`COc1cc(NC(=O)C(C)C)c(C(=O)O)cc1OC` gave a melting point of 216 to 218 °C.

For the molecule `NC(C(=O)O)c1cccc(Br)c1` (stereo not drawn), the melting point lay in the range of 221 to 223 °C.

`O=C(O)C1CCN(c2cnccn2)CC1` displayed a melting point of 149 to 151 °C.

Regarding `O=S(=O)(Cl)c1c[nH]cn1`, the melting point is 164 to 166 °C.

`CCOC(=O)c1cc(Br)ccc1N` had a melting point of 79 to 81 °C.

`COC(=O)C1CCC(C(=O)O)CC1` (stereo not drawn) displayed a melting point of 85 to 87 °C.

Consider `CC(=O)c1ccc(S(=O)(=O)C(F)F)cc1`, for which the melting point was in the range of 92 to 94 °C.

`O=Cc1ccc2cn[nH]c2c1` returned a melting point of 179 to 181 °C.

In turn, `O=C(CCl)Nc1c(F)cc(F)cc1Br` gave a melting point of 132 to 134 °C.

Turning to `NC1CCCS(=O)(=O)c2ccccc21` (stereo not drawn), the melting point lay in the range of 115 to 117 °C.

Turning to `O=C(CO)N1CCNCC1`, the melting point lay within 69 to 71 °C.

The molecule `Cc1cc(N2CCCC2=O)ccc1Br` had a melting point of 107 to 109 °C.

Molecule `Nc1cccc(C(=O)NCc2ccccc2F)c1` had a melting point of 204 to 206 °C.

Turning to `CCc1nnnn1-c1ccccc1N`, the melting point was in the range of 107 to 109 °C.

For `NS(=O)(=O)c1cc([N+](=O)[O-])c(Br)s1`, the melting point lay in the range of 145 to 147 °C.

Consider `O=[N+]([O-])c1ccc2c(c1)NCCS2`, for which the melting point lay within 142 to 144 °C.

`Nc1nncc(-c2cc(Cl)ccc2Cl)n1`: the melting point is 175 to 177 °C.

`NS(=O)(=O)C#Cc1ccccc1` showed a melting point of 136 to 138 °C.

`NC(=O)Cn1cc([N+](=O)[O-])cn1`: the melting point lay within 167 to 169 °C.

In the case of `COc1ccccc1C(N)C(=O)O` (stereo not drawn), the melting point was in the range of 169 to 171 °C.

For the molecule `Nc1ccccc1-n1ccc(C(=O)O)n1`, the melting point lay in the range of 136 to 138 °C.

The molecule `CS(=O)(=O)Nc1ccccc1I` showed a melting point of 96 to 98 °C.

`CC(C)CC(C(=O)O)N1C(=O)C2CC=CCC2C1=O` (stereo not drawn) showed a melting point of 135 to 137 °C.

`CC1=C(C#N)CCC(=O)N1`: the melting point was 201 to 203 °C.

With `Cc1nn(C)c2ncc(S(=O)(=O)Cl)cc12`, the melting point lay within 134 to 136 °C.

As to `CN(C)S(=O)(=O)c1ccc2oc(NN)nc2c1`, the melting point lay in the range of 218 to 220 °C.

Consider `NC(=O)COc1cccc(CCl)c1`, for which the melting point fell in the range of 114 to 116 °C.

Molecule `COCC(C)n1cc(C(=O)O)c(C)n1` (stereo not drawn) yielded a melting point of 114 to 116 °C.

For `O=C(O)c1cc2c([nH]1)CCC2`, the melting point lay in the range of 109 to 111 °C.

`COC(=O)Cc1c(C)n[nH]c1C` gave a melting point of 51 to 55 °C.

For the molecule `COC(=O)C1CCN(c2nc3ccccc3o2)CC1`, the melting point lay in the range of 106 to 108 °C.

Consider `CC(Cl)C(=O)NC(c1ccccc1)c1ccccc1` (stereo not drawn), for which the melting point was in the range of 130 to 139 °C.

As for `C#Cc1nc2ccccc2s1`, the melting point was 39 to 41 °C.

The molecule `COc1ccc(S(=O)(=O)CC(C)C(=O)O)cc1` (stereo not drawn) came in with a melting point of 116 to 118 °C.

In turn, `CCC(=O)Nc1ccc(O)c(C(=O)O)c1` yielded a melting point of 217 to 219 °C.

As for `O=c1[nH]c(CCl)nc2c(Br)cc(Br)cc12`, the melting point fell in the range of 248 to 252 °C.

`O=C(O)C=Cc1ccc(S(=O)(=O)N2CCc3ccccc32)cc1` came in with a melting point of 199 to 201 °C.

On to `O=C(Nc1ccc(F)cc1)Nc1cccc(O)c1`, for which the melting point fell in the range of 214 to 216 °C.

`CCc1ccccc1C(=O)O`: the melting point was in the range of 62 to 66 °C.

For `CCC1(C)NC(=O)N(CCCN)C1=O` (stereo not drawn), the melting point lay within 63 to 65 °C.

As to `Cc1ccc(C(=O)CCl)cc1C`, the melting point lay in the range of 51 to 53 °C.

Regarding `Nc1cccc(N2C(=O)CC3(CCCC3)C2=O)c1`, the melting point is 136 to 138 °C.

Molecule `CC(C)S(=O)(=O)c1ccc(Cl)c(C(=O)O)c1` registered a melting point of 129 to 131 °C.

Turning to `CCCc1[nH]c2ccccc2c1CC`, the melting point was in the range of 43 to 45 °C.

As to `Cc1ncc(CN2CCNCC2)s1`, the melting point fell in the range of 79 to 81 °C.

As for `CNCC(O)COc1ccc2c(c1)OCO2` (stereo not drawn), the melting point lay in the range of 93 to 95 °C.

Turning to `O=[N+]([O-])c1ccc(F)c(-n2cnnn2)c1`, the melting point lay in the range of 101 to 103 °C.

As for `Sc1nnc(NCC2CCCO2)s1` (stereo not drawn), the melting point lay within 123 to 125 °C.

For `COc1cc(OC)cc(C(N)c2nccn2C)c1` (stereo not drawn), the melting point was 99 to 101 °C.

Take `CCOC(=O)c1c(N)sc2c1CCNC2`: the melting point lay within 121 to 123 °C.

`CS(=O)(=O)c1cc(Br)ccc1N` gave a melting point of 129 to 131 °C.

`CC(CC(=O)O)C1CCNCC1` (stereo not drawn): the melting point lay in the range of 255 to 257 °C.

Turning to `O=S(=O)(NC1CC1)c1ccc(Cl)nc1`, the melting point was 94 to 96 °C.

`COc1ccc(N=C=S)cc1Cl` came in with a melting point of 88 to 90 °C.

With `O=S1(=O)Cc2ccccc2N1`, the melting point was 123 to 125 °C.

Turning to `ClCc1ccc(-c2nc3cc(Cl)ccc3s2)cc1`, the melting point was 164 to 166 °C.

`Cc1nc(-c2cnn(C)c2)sc1C(=O)O` had a melting point of 230 to 232 °C.

For the molecule `Cc1ccc(O)c(C(=O)NCC(C)C)c1`, the melting point was 51 to 53 °C.

`CC(C)Nc1nnc(S)s1` registered a melting point of 194 to 196 °C.

Regarding `NCc1ccc(CN2CCC(O)CC2)cc1`, the melting point is 128 to 130 °C.

The molecule `CCc1cccc(CC)c1Nc1nnc(S)s1` registered a melting point of 165 to 167 °C.

Molecule `Cc1nc(C(C)(C)C)nc(Cl)c1C` yielded a melting point of 36 to 38 °C.

The molecule `O=S1(=O)CCC(Cc2nc3ccccc3[nH]2)C1` (stereo not drawn) showed a melting point of 156 to 158 °C.

`CCc1nc2ccccc2n1CC(=O)NN` came in with a melting point of 211 to 213 °C.

As for `Fc1cccc2c(CBr)csc12`, the melting point was 74 to 76 °C.

In the case of `O=C(O)c1cc(-c2ccccc2)nc2c1cnn2Cc1cccnc1`, the melting point was 210 to 212 °C.

Molecule `O=C(O)Cc1cc2ccccc2o1` returned a melting point of 89 to 91 °C.

Molecule `Nc1ccc(S(N)(=O)=O)cc1F` gave a melting point of 166 to 168 °C.

In the case of `O=C(NCc1ccc2c(c1)OCO2)C(Cl)c1ccccc1` (stereo not drawn), the melting point lay within 104 to 106 °C.

`CCn1cc(C(=O)C(=O)O)cn1` showed a melting point of 129 to 131 °C.

`CC(C)C1OC(N)=NC1=O` (stereo not drawn) yielded a melting point of 219 to 221 °C.

With `O=C1OCCN1c1cccc([N+](=O)[O-])c1`, the melting point was 135 to 137 °C.

Consider `O=S(=O)(Cl)c1cnccc1Cl`, for which the melting point lay within 45 to 47 °C.

`Cc1ccc(-n2cnnc2SCC(=O)O)cc1` yielded a melting point of 218 to 220 °C.

The molecule `COc1ccc(Cn2[nH]ccc2=N)c(OC)c1` had a melting point of 76 to 78 °C.

`O=C(O)c1ccnc(Oc2ccccc2)c1` displayed a melting point of 241 to 243 °C.

Consider `Nc1ccnn1Cc1ccccc1`, for which the melting point was in the range of 82 to 84 °C.

As for `NC(=O)Cc1ccc(OCC(=O)O)cc1`, the melting point was in the range of 171 to 173 °C.

Molecule `CCN1C(=O)CNC1=O` showed a melting point of 100 to 102 °C.

With `Cc1[nH]c2ccccc2c1CC#N`, the melting point is 79 to 81 °C.

In the case of `COc1cccc(CNc2ccc3[nH]c(=O)[nH]c3c2)c1`, the melting point fell in the range of 190 to 192 °C.

For the molecule `BrCc1cc(Br)cc2cccnc12`, the melting point lay within 140 to 142 °C.

The molecule `CC(C)N1C2CCCC1CC(O)C2` (stereo not drawn) returned a melting point of 59 to 61 °C.

In turn, `O=C(NS(=O)(=O)c1cccs1)c1ccccc1` came in with a melting point of 92 to 94 °C.

`Brc1cccc2cnoc12`: the melting point was 79 to 81 °C.

`CCc1c(C(=O)O)[nH]c(C)c1C(C)=O` registered a melting point of 202 to 204 °C.

`CSc1nc(Cl)cc(CCl)n1` had a melting point of 28 to 32 °C.

`Cc1nc(C#N)c(NN)o1` showed a melting point of 157 to 159 °C.

In turn, `Cn1c(N)nccc1=O` came in with a melting point of 257 to 259 °C.

Take `Nc1nc2cc3c(cc2s1)OC(F)(F)O3`: the melting point was in the range of 191 to 193 °C.

With `Cc1c(C(=O)O)sc2[nH]cnc(=S)c12`, the melting point fell in the range of 309 to 311 °C.

`CNc1ccnc(C)c1` registered a melting point of 59 to 61 °C.

The molecule `CCc1ccc(NC(=O)c2nnc(CCl)s2)cc1` yielded a melting point of 126 to 128 °C.

`CNc1nc(C)cc(C)c1C#N` showed a melting point of 147 to 149 °C.

`CC(C)(C)OC(=O)NCCc1nc(N)no1`: the melting point was 116 to 118 °C.

As for `CC(C)(C)C(N)=S`, the melting point fell in the range of 114 to 116 °C.

In turn, `O=C(O)c1c2c(nc3ccccc13)C(=Cc1cccc([N+](=O)[O-])c1)CCC2` had a melting point of 299 to 301 °C.

`O=C(O)c1cc(Cl)ccc1OC1CCCC1`: the melting point is 95 to 97 °C.

Take `O=C(Nc1ccccc1Cl)c1c[nH]c2ccccc12`: the melting point fell in the range of 213 to 215 °C.

With `CC(C)Oc1cncc(C(=O)O)c1`, the melting point fell in the range of 172 to 174 °C.

The molecule `COC(=O)CNc1ccccc1` returned a melting point of 45 to 47 °C.

The molecule `Cc1nn(-c2ccccc2)c(C)c1CC(=O)O` yielded a melting point of 110 to 112 °C.

Take `O=C(O)c1cnoc1C1CC1`: the melting point was 159 to 161 °C.

On to `c1ccc(-c2cncc(-c3ccccc3)n2)cc1`, for which the melting point was in the range of 86 to 88 °C.

Consider `CC(O)c1nc(-c2ccccc2)cs1` (stereo not drawn), for which the melting point was in the range of 75 to 77 °C.

The molecule `CN1CCN(S(=O)(=O)c2cccc(Br)c2)CC1` came in with a melting point of 103 to 105 °C.

As to `CC(C)(C)c1ccccc1OCC(=O)O`, the melting point fell in the range of 144 to 148 °C.

`CC(Cl)c1nnc(-c2ccc(Cl)cc2Cl)o1` (stereo not drawn) registered a melting point of 55 to 57 °C.

For the molecule `O=C(Nc1nccs1)C(Cl)(Cl)Cl`, the melting point is 203 to 205 °C.

`Sc1nnnn1-c1cccc(Cl)c1`: the melting point fell in the range of 148 to 150 °C.

In the case of `COc1ccc(-c2nnc(SCC(=O)O)o2)cc1`, the melting point lay within 140 to 143 °C.

`O=C(O)c1cc(CO)on1` yielded a melting point of 129 to 131 °C.

As for `NC(=O)CNc1ccc(C(=O)O)cc1`, the melting point lay within 249 to 251 °C.

Regarding `CN(CC(C)(C)C)C(=O)c1cccc(C(=O)O)c1`, the melting point lay within 132 to 134 °C.

`Cc1ccccc1Nc1nc(N)nc(CCl)n1` displayed a melting point of 203 to 207 °C.

In the case of `COc1ccc(C(O)C2CC2)c(C)c1` (stereo not drawn), the melting point lay within 39 to 41 °C.
